± gives the expanded uncertainty stated by the source.
Columns and labels:
[1] = refractive index (Na D-line) (dimensionless); conditions: 298.15 K; 101.33 kPa; Liquid; Standard Abbe refractometry
[2] = Liquid; for mass density: 298.15 K, Vibrating tube method
[3] = xn = mol fraction of the nth substance listed; conditions: 298.15 K, 101 kPa, Liquid, Vibrating tube method

CCCO [propan-1-ol]
Conditions | refractive index
[1] | 1.3837 ± 0.0005

[2]
Conditions | Normal boiling temperature [°C] | mass density [kg/m3]
101.33 kPa | – | 799.6 ± 0.3
Ebulliometric method (Recirculating still) | 97.29 ± 1 | –

[2]
Conditions | vapor or sublimation pressure [kPa]
313.98 K, Closed cell (Static) method | 8 ± 4
325.46 K, Closed cell (Static) method | 14 ± 4
331.28 K, Closed cell (Static) method | 18 ± 4
335.02 K, Closed cell (Static) method | 22 ± 4
339.49 K, Closed cell (Static) method | 28 ± 4
343.81 K, Closed cell (Static) method | 34 ± 4
347.33 K, Closed cell (Static) method | 40 ± 4
351.55 K, Closed cell (Static) method | 48 ± 4
353.46 K, Closed cell (Static) method | 52 ± 4
356.16 K, Closed cell (Static) method | 58 ± 4
359.07 K, Closed cell (Static) method | 66 ± 4
361.64 K, Closed cell (Static) method | 72 ± 4
363.69 K, Closed cell (Static) method | 78 ± 4
366.43 K, Closed cell (Static) method | 88 ± 4
367.86 K, Closed cell (Static) method | 92 ± 4
372.66 K, Closed cell (Static) method | 110 ± 4
374.63 K, Closed cell (Static) method | 118 ± 4
376.34 K, Closed cell (Static) method | 126 ± 4
378.84 K, Closed cell (Static) method | 138 ± 4
380.75 K, Closed cell (Static) method | 148 ± 4
382.61 K, Closed cell (Static) method | 158 ± 4
384.08 K, Closed cell (Static) method | 166 ± 4
385.46 K, Closed cell (Static) method | 174 ± 4
386.6 K, Closed cell (Static) method | 182 ± 4
387.29 K, Closed cell (Static) method | 186 ± 4
389.05 K, Closed cell (Static) method | 198 ± 4
390.26 K, Closed cell (Static) method | 206 ± 4
391.39 K, Closed cell (Static) method | 214 ± 4
393.67 K, Closed cell (Static) method | 230 ± 4
398.52 K, Closed cell (Static) method | 260 ± 4
406.65 K, Closed cell (Static) method | 340 ± 4
410.69 K, Closed cell (Static) method | 382 ± 4
414.02 K, Closed cell (Static) method | 420 ± 4
417.3 K, Closed cell (Static) method | 460 ± 4
418.84 K, Closed cell (Static) method | 475 ± 4
421.54 K, Closed cell (Static) method | 512 ± 4
423.55 K, Closed cell (Static) method | 545 ± 4
427.2 K, Ebulliometric method (Recirculating still) | 600 ± 7.5
427.98 K, Closed cell (Static) method | 612 ± 4
430.49 K, Closed cell (Static) method | 655 ± 4
432.23 K, Closed cell (Static) method | 685 ± 4
434.42 K, Closed cell (Static) method | 722 ± 4
436.33 K, Closed cell (Static) method | 755 ± 4
439.88 K, Closed cell (Static) method | 825 ± 4
441.78 K, Closed cell (Static) method | 865 ± 4
443 K, Closed cell (Static) method | 890 ± 4
444.97 K, Closed cell (Static) method | 935 ± 4
448.1 K, Closed cell (Static) method | 1007 ± 4
449.6 K, Closed cell (Static) method | 1043 ± 4
452.29 K, Closed cell (Static) method | 1112 ± 4
453.22 K, Closed cell (Static) method | 1135 ± 4
454.7 K, Closed cell (Static) method | 1175 ± 5
456 K, Closed cell (Static) method | 1210 ± 5
457.19 K, Closed cell (Static) method | 1245 ± 5
458.54 K, Closed cell (Static) method | 1282 ± 5
459.71 K, Closed cell (Static) method | 1317 ± 5
460.87 K, Closed cell (Static) method | 1352 ± 5
461.97 K, Closed cell (Static) method | 1387 ± 5
463.21 K, Closed cell (Static) method | 1425 ± 5
464.18 K, Closed cell (Static) method | 1455 ± 5
465.41 K, Closed cell (Static) method | 1495 ± 5
466.65 K, Closed cell (Static) method | 1535 ± 5
467.43 K, Closed cell (Static) method | 1562 ± 5
468.64 K, Closed cell (Static) method | 1602 ± 5
469.46 K, Closed cell (Static) method | 1630 ± 5

CC(=O)OCC(C)C [2-methylpropyl ethanoate]
Conditions | refractive index
[1] | 1.3882 ± 0.0005

[2]
Conditions | Normal boiling temperature [°C] | mass density [kg/m3]
101.33 kPa | – | 866.2 ± 0.4
Ebulliometric method (Recirculating still) | 116.29 ± 1 | –

Conditions | vapor or sublimation pressure [kPa]
[2], 461.03 K, Ebulliometric method (Recirculating still) | 600 ± 7.5

CC(=O)OCC(C)C [2-methylpropyl ethanoate] + CCO
[3]
Conditions | mass density [kg/m3]
x1 = 0.09 | 799.8 ± 0.3
x1 = 0.153 | 808.3 ± 0.3
x1 = 0.22 | 816.2 ± 0.3
x1 = 0.277 | 822.2 ± 0.3
x1 = 0.349 | 828.9 ± 0.3
x1 = 0.44 | 836.3 ± 0.3
x1 = 0.563 | 844.8 ± 0.3
x1 = 0.657 | 850.4 ± 0.3
x1 = 0.742 | 854.9 ± 0.3
x1 = 0.85 | 860 ± 0.3
x1 = 0.898 | 862.1 ± 0.3
x1 = 0.942 | 863.9 ± 0.4
x1 = 1 | 866.2 ± 0.4

CCCO [propan-1-ol] + CC(=O)OCC(C)C
Conditions | mass density [kg/m3]
[3], x2 = 0 | 799.6 ± 0.3

CCO [ethanol] + CC(=O)OCC(C)C
Conditions | mass density [kg/m3]
[3], x2 = 0 | 785.2 ± 0.3

CC(C)O [propan-2-ol] + CC(=O)OCC(C)C
Conditions | mass density [kg/m3]
[3], x2 = 0 | 781.3 ± 0.3

CC(=O)OCC(C)C [2-methylpropyl ethanoate] + CCCO
[3]
Conditions | mass density [kg/m3]
x1 = 0.053 | 805.4 ± 0.3
x1 = 0.092 | 809.3 ± 0.3
x1 = 0.145 | 814.5 ± 0.3
x1 = 0.196 | 819.1 ± 0.3
x1 = 0.249 | 823.5 ± 0.3
x1 = 0.302 | 827.6 ± 0.3
x1 = 0.346 | 830.9 ± 0.3
x1 = 0.444 | 837.6 ± 0.3
x1 = 0.482 | 840 ± 0.3
x1 = 0.508 | 841.6 ± 0.3
x1 = 0.565 | 845 ± 0.3
x1 = 0.613 | 847.7 ± 0.3
x1 = 0.719 | 853.3 ± 0.3
x1 = 0.751 | 854.9 ± 0.3
x1 = 0.804 | 857.5 ± 0.3
x1 = 0.854 | 859.8 ± 0.3
x1 = 0.889 | 861.4 ± 0.3
x1 = 0.909 | 862.3 ± 0.4
x1 = 0.953 | 864.2 ± 0.4
x1 = 1 | 866.2 ± 0.4

CCO [ethanol]
Conditions | mass density [kg/m3]
[2], 101 kPa | 785.2 ± 0.3

Conditions | vapor or sublimation pressure [kPa]
[2], 405.53 K, Ebulliometric method (Recirculating still) | 600 ± 7.5

CC(=O)OCC(C)C [2-methylpropyl ethanoate] + CC(C)O
[3]
Conditions | mass density [kg/m3]
x1 = 0.051 | 787.4 ± 0.3
x1 = 0.126 | 796.2 ± 0.3
x1 = 0.204 | 804.7 ± 0.3
x1 = 0.235 | 807.9 ± 0.3
x1 = 0.352 | 819.1 ± 0.3
x1 = 0.407 | 824 ± 0.3
x1 = 0.501 | 831.8 ± 0.3
x1 = 0.549 | 835.6 ± 0.3
x1 = 0.677 | 845.1 ± 0.3
x1 = 0.752 | 850.3 ± 0.3
x1 = 0.799 | 853.5 ± 0.3
x1 = 0.868 | 857.9 ± 0.3
x1 = 0.949 | 863.1 ± 0.4
x1 = 1 | 866.2 ± 0.4

CC(C)O [propan-2-ol]
Conditions | refractive index
[1] | 1.3751 ± 0.0005

[2]
Conditions | Normal boiling temperature [°C] | mass density [kg/m3]
101.33 kPa | – | 781.3 ± 0.2
Ebulliometric method (Recirculating still) | 82.38 ± 1 | –

Conditions | vapor or sublimation pressure [kPa]
[2], 410.08 K, Ebulliometric method (Recirculating still) | 600 ± 7.5

From the NIST ThermoML archive (doi:10.1016/j.fluid.2012.06.013)
